# Laboratory results from US20060147485A1, “Oil-in-water formulation of avermectins” (priority 2005, published 2006).
# Tests used:
# [1] = Stability of Abamectin in water exposed to light at various pH-values (HPLC); type: physicochemical; details: Light (5000-6000 lux)
# Procedure: The stability of Abamectin in water exposed to light at various pH-values was determined. 194.4 mg of abamectin was dissolved in 10 ml methanol and 1 ml of the solution transferred to 100 ml of demineralised water and a part of this transferred to a buffer solution. The solution was exposed to light (5000-6000 lux) at 25° C. and analysed using a HPLC.
# [2] = Stability of Abamectin in water at various pH-values and temperatures (dark, HPLC); type: physicochemical
# Procedure: The stability of Abamectin in water at various pH-values and temperatures was determined. 194.4 mg of abamectin was dissolved in 10 ml methanol and 1 ml of the solution transferred to 100 ml of de-mineralised water and a part of this was transferred to a buffer solution. The sample was kept in the dark and the solution analysed using a HPLC.
substance,measurement,setting,value
Abamectin,Abemectin concentration (ppm),"[1]; pH 4.0, 25° C., 7 days",2.923 ppm
same,Abemectin concentration (ppm),"[1]; pH 4.0, 25° C., 14 days",2.332 ppm
same,Abemectin concentration (ppm),"[1]; pH 4.0, 25° C., 21 days",1.961 ppm
same,Abemectin concentration (ppm),"[1]; pH 4.0, 25° C., 28 days",1.666 ppm
same,Abemectin concentration (ppm),"[1]; pH 4.0, 25° C., Initial",3.495 ppm
same,Abemectin concentration (ppm),"[1]; pH 7.0, 25° C., 7 days",2.941 ppm
same,Abemectin concentration (ppm),"[1]; pH 7.0, 25° C., 14 days",2.529 ppm
same,Abemectin concentration (ppm),"[1]; pH 7.0, 25° C., 21 days",2.223 ppm
same,Abemectin concentration (ppm),"[1]; pH 7.0, 25° C., 28 days",2.034 ppm
same,Abemectin concentration (ppm),"[1]; pH 7.0, 25° C., Initial",3.327 ppm
same,Abemectin concentration (ppm),"[1]; pH 9.0, 25° C., 7 days",3.163 ppm
same,Abemectin concentration (ppm),"[1]; pH 9.0, 25° C., 14 days",2.810 ppm
same,Abemectin concentration (ppm),"[1]; pH 9.0, 25° C., 21 days",2.360 ppm
same,Abemectin concentration (ppm),"[1]; pH 9.0, 25° C., 28 days",2.173 ppm
same,Abemectin concentration (ppm),"[1]; pH 9.0, 25° C., Initial",3.555 ppm
same,Abemectin concentration (ppm),"[2]; pH 4.0, 25 ° C., 7 days",3.130 ppm
same,Abemectin concentration (ppm),"[2]; pH 4.0, 25 ° C., 14 days",2.782 ppm
same,Abemectin concentration (ppm),"[2]; pH 4.0, 25 ° C., 21 days",2.566 ppm
same,Abemectin concentration (ppm),"[2]; pH 4.0, 25 ° C., 28 days",2.524 ppm
same,Abemectin concentration (ppm),"[2]; pH 4.0, 25 ° C., Initial",3.495 ppm
same,Abemectin concentration (ppm),"[2]; pH 4.0, 50 ° C., 7 days",1.054 ppm
same,Abemectin concentration (ppm),"[2]; pH 4.0, 50 ° C., 14 days",0.383 ppm
same,Abemectin concentration (ppm),"[2]; pH 4.0, 50 ° C., 21 days",0.123 ppm
same,Abemectin concentration (ppm),"[2]; pH 4.0, 50 ° C., 28 days",0.0609 ppm
same,Abemectin concentration (ppm),"[2]; pH 4.0, 50 ° C., Initial",3.495 ppm
same,Abemectin concentration (ppm),"[2]; pH 7.0, 25 ° C., 7 days",3.188 ppm
same,Abemectin concentration (ppm),"[2]; pH 7.0, 25 ° C., 14 days",3.040 ppm
same,Abemectin concentration (ppm),"[2]; pH 7.0, 25 ° C., 21 days",2.829 ppm
same,Abemectin concentration (ppm),"[2]; pH 7.0, 25 ° C., 28 days",2.676 ppm
same,Abemectin concentration (ppm),"[2]; pH 7.0, 25 ° C., Initial",3.327 ppm
same,Abemectin concentration (ppm),"[2]; pH 7.0, 50 ° C., 7 days",2.952 ppm
same,Abemectin concentration (ppm),"[2]; pH 7.0, 50 ° C., 14 days",2.780 ppm
same,Abemectin concentration (ppm),"[2]; pH 7.0, 50 ° C., 21 days",2.194 ppm
same,Abemectin concentration (ppm),"[2]; pH 7.0, 50 ° C., 28 days",1.949 ppm
same,Abemectin concentration (ppm),"[2]; pH 7.0, 50 ° C., Initial",3.327 ppm
same,Abemectin concentration (ppm),"[2]; pH 9.0, 25 ° C., 7 days",3.005 ppm
same,Abemectin concentration (ppm),"[2]; pH 9.0, 25 ° C., 14 days",2.596 ppm
same,Abemectin concentration (ppm),"[2]; pH 9.0, 25 ° C., 21 days",2.380 ppm
same,Abemectin concentration (ppm),"[2]; pH 9.0, 25 ° C., 28 days",2.287 ppm
same,Abemectin concentration (ppm),"[2]; pH 9.0, 25 ° C., Initial",3.555 ppm
same,Abemectin concentration (ppm),"[2]; pH 9.0, 50 ° C., 7 days",1.265 ppm
same,Abemectin concentration (ppm),"[2]; pH 9.0, 50 ° C., 14 days",0.519 ppm
same,Abemectin concentration (ppm),"[2]; pH 9.0, 50 ° C., 21 days",0.205 ppm
same,Abemectin concentration (ppm),"[2]; pH 9.0, 50 ° C., 28 days",0.0628 ppm
same,Abemectin concentration (ppm),"[2]; pH 9.0, 50 ° C., Initial",3.555 ppm
